The source of these data is article PMC3141555, “Neuroprotective effect of a new DJ-1-binding compound against neurodegeneration in Parkinson's disease and stroke model rats” (2011).

In one assay the target is T1, DJ-1 (Homo sapiens, UniProt Q99497).
T1 construct: gene PARK7; recombinant DJ-1
T1 sequence (Q99497 2-189): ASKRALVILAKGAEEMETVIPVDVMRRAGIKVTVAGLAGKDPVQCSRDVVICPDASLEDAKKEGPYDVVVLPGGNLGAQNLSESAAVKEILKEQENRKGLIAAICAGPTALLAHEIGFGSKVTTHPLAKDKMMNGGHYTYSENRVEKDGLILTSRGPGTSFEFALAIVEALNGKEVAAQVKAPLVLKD
Nature of the assay: quartz crystal microbalance (compound fixed on sensor chip, recombinant DJ-1 applied). It is filed as binding.

The target in assay [1] is T2, DJ-1 (human (endogenous in SH-SY5Y)), Q99497.
T2 chain: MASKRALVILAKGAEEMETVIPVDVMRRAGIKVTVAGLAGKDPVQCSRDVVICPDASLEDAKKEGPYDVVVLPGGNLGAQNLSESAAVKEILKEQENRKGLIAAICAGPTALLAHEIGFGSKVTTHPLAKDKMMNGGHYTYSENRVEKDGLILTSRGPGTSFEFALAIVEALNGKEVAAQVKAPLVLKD
Nature of the assay: cross-linking; SH-SY5Y cells incubated with 1 uM compound-23 or compound-B for 20 hours, treated with various amounts of H2O2 for 3 hours, then 0.5 mM DSS (or DMSO) for 30 min; extracts analysed by Western blotting with an anti-DJ-1 antibody. Conditions: remark: other sources report otherwise. A general note: A western blot detects proteins with antibodies after separation by electrophoresis.

On to `COc1cc(C(=O)Nc2ccc(-c3cn4cccc(C)c4n3)cc2)cc(OC)c1OC` [compound-23, N-[4-(8-methyl(4-hydroimidazo[1,2-a]pyridin-2-yl))phenyl](3,4,5-trimethoxyphenyl)carboxamide], for which the Kd (commonly a measure of binding affinity in units of concentration) at DJ-1 was 103 nM.

B1: DJ-1, Q99497 1-189 (natural protein)
chain: MASKRALVILAKGAEEMETVIPVDVMRRAGIKVTVAGLAGKDPVQCSRDVVICPDASLEDAKKEGPYDVVVLPGGNLGAQNLSESAAVKEILKEQENRKGLIAAICAGPTALLAHEIGFGSKVTTHPLAKDKMMNGGHYTYSENRVEKDGLILTSRGPGTSFEFALAIVEALNGKEVAAQVKAPLVLKD
Take B1: the stoichiometry N (commonly the number of molecules, sites or subunits per partner or assembly) in assay [1] turned out to be 2.
